Entries after “also recorded” stand apart in the source; their conditions may differ.
How the values were obtained:
Caco-2 cells [1] = assay: Transepithelial resistance (TER) of Caco-2 monolayers; format: cell-based, human
Protocol: (§1) Caco-2 cells were grown close to confluence, and T84 cells were grown to confluence. The apical chambers of transwell plates with 6.5 mm diameter and 3 μm pore size filters were pretreated with 50 μl of 45 μg/ml collagen IV in 60% ethanol 24 hours prior to plating and incubated overnight at room temperature. After reaching confluence, cells were washed with 20 ml PBS and treated with 3.5 ml trypsin-EDTA per 175 cm^2 flask for 20-60 min at 37° C. until cells detached. Cells were resuspended in 16.5 ml media appropriate to the cell type. Each apical chamber was supplemented with 82 μl cell solution. The basolateral chamber was filled with 1 ml propagation media. Filters were fed with new media every two days over the course of experiments.
(§2) Caco-2 and T84 cells were allowed to grow on transwells to form monolayers. Monolayer formation was examined every other day by light microscopy as well as by transepithelial resistance (TER) measurements using an EVOM ohmmeter (World Precision Instruments, Sarasota, Fla.). After monolayer formation, cells were treated with 100 ng/ml FGF1, 100 ng/ml FGF2, 100 ng/ml FGF7 or an equivalent volume (10 μl) of PBS. TER measurements were made either after 72 hours or at each of the 30 minutes, 1 hour, 2 hours, 4 hours, 9 hours, 24 hours and 48 hours timepoints. To determine the effects of multiple additions of ligand, FGFs or PBS were added initially and again after 2 days, and TER measurements were made after 0, 2 and 5 days.
(§3) To probe the mechanism by which various FGFs induced cell mediated effects, various media treatments were employed. Ammonium tetrathiomolybdate (TM) was added 24 hours prior to the addition of ligands to yield a final concentration of 200 μM, sufficient to prevent the release of FGF1 [3]. Similarly, sodium chlorate, which reduces cell HSPGs and the sulfation of associated HSGAGs, was added 24 hours prior to the addition of ligands to yield a final concentration of 50 mM [33,34]. Antibodies and kinase inhibitors were added immediately prior to ligands. Antibodies to FGF1, FGFR1 and FGFR3 were added at a 1:100 dilution. Kinase inhibitors were added to yield final concentrations of 50 μM LY294002, 20 μM PD98059, 1 μM SB203580. All experiments were performed in triplicate.
Caco-2 cells were grown to just prior to confluency. The apical chambers of transwell plates with 6.5 mm diameter and 3 μm pore size filters were pretreated with 50 μl of 45 μg/ml mouse recombinant collagen IV (BD Biosciences, Bedford, Mass.) in 60% ethanol 24 hours prior to plating. Plates were incubated overnight at room temperature. Just prior to confluency, cells were washed with 20 ml phosphate buffered saline (PBS) and treated with 3.5 ml trypsin-EDTA per 175 cm^2 flask for 20-60 min at 37° C., until cells detached. Cells were resuspended in 16.5 ml media appropriate to the cell type. Each apical chamber was supplemented with 82 μl cell solution. The basolateral chamber was filled with 1 ml propagation media. Filters were fed with new media every two days over the course of experiments.
Caco-2 cells were allowed to grow on transwells to form monolayers. Monolayer formation was examined every other day by light microscopy as well as by TER measurements using an EVOM ohmmeter (World Precision Instruments, Sarasota, Fla.). After monolayer formation, cells were treated with 100 ng/ml recombinant human FGF1 (Amgen, Thousand Oaks, Calif.), 100 ng/ml recombinant human FGF2 [1], 100 ng/ml recombinant human FGF7 (Sigma, St. Louis, Mo.), or an equivalent volume (10 μl) of PBS. TER measurements were made after each of 30 minutes, 1 hour, 2 hours, 4 hours, 9 hours, 24 hours and 48 hours.
To probe the mechanism by which various FGFs induced cellular mediated effects, various media treatments were employed. TM was added 24 hours prior to the addition of ligands to yield a final concentration of 200 μM, sufficient to prevent the release of FGF1 [3]. […]

T84 cells [2] = assay: Transepithelial resistance (TER) of T84 monolayers; format: cell-based, human; settings: agent given before or with 100 ng/ml FGFs (TM 200 μM, sodium chlorate 50 mM, LY294002 50 μM, antibodies 1:100)
Protocol: as §1, §2, §3

T84 cells [3] = assay: T84 proliferation assay (whole cell number); format: cell-based, human; settings: TM 200 μM, FGF1 added to TM treated cells
Protocol: (§4) Caco-2 cells were grown to just prior to confluence, and T84 cells were grown to confluence. Each flask was washed with 20 ml PBS and treated with 3 ml trypsin-EDTA at 37° C. for 20-60 minutes until cells detached. Cells were centrifuged for 3 minutes at 195×g. The supernatant was aspirated, and the cells were resuspended in 10 ml media. The cell density was measured using an electronic cell counter, and the suspension was diluted to 50,000 cells/ml. The suspension was plated at 1 ml/well into 12-well tissue culture plates. After a 24 hour incubation in a 5% CO2, 37° C. humidified incubator, the media was aspirated, the wells were washed with serum free media, and the cells were supplemented with media containing 0.1% FBS. The wells were then supplemented with 10 μl PBS, 50 mM sodium chlorate, or 200 μM TM, and incubated for 24 hours. Subsequently, cells were supplemented with 100 ng/ml FGF1, FGF2, FGF7, or 10 μl PBS, and incubated for 72 hours. Wells were then washed twice with PBS and treated with 0.5 ml trypsin-EDTA/well and incubated at 37° C. until cells detached. Whole cell number was determined using an electronic cell counter. Data was averaged over three experiments, each consisting of four wells per condition.

FGF1 [4] = assay: Immunohistochemistry for FGF1 in T84 cells; format: cell-based, human; settings: 200 μM TM for 24 hours
Protocol: (§5) To determine FGFR and FGF1 expression, Caco-2 cells were grown to just prior to confluence, and T84 cells were grown to confluence on collagen-coated glass slides. Cells were washed with PBS supplemented with 5% BSA. To stain for FGFR3, rabbit anti-human FGFR3 antibodies were added to cells at a 1:500 dilution and incubated for 1 hour. Cells were washed with PBS supplemented with 5% BSA, and FITC-conjugated goat anti-rabbit antibodies were added and incubated for 30 minutes. Cells were washed with BSA-PBS and examined using fluorescence microscopy. For FGF1 analysis, cells were treated with 200 μM TM or 10 μl PBS for 24 hours, formalin fixed, treated with goat anti-human FGF1 antibodies at a 1:200 dilution and incubated for 4 hours. Cells were washed with PBS supplemented with 5% BSA, and Texas red-conjugated donkey anti-goat antibodies were added and incubated for 1 hour. Cells were washed with BSA-PBS and examined using fluorescence microscopy.

Caco-2 cells [5] = assay: Caco-2 proliferation assay (whole cell number); format: cell-based, human; settings: TM 200 μM, FGF1 added to TM treated cells
Protocol: as §4

FGF1 [6] = assay: Immunohistochemistry for FGF1 in Caco-2 cells; format: cell-based, human; settings: 200 μM TM for 24 hours
Protocol: as §5

[7] = target: FGFR3b expressed by Caco-2 and T84 cells (human) (UniProt P22607); assay: cell-based or functional assay
Chain of UniProt P22607 (P22607 23-806): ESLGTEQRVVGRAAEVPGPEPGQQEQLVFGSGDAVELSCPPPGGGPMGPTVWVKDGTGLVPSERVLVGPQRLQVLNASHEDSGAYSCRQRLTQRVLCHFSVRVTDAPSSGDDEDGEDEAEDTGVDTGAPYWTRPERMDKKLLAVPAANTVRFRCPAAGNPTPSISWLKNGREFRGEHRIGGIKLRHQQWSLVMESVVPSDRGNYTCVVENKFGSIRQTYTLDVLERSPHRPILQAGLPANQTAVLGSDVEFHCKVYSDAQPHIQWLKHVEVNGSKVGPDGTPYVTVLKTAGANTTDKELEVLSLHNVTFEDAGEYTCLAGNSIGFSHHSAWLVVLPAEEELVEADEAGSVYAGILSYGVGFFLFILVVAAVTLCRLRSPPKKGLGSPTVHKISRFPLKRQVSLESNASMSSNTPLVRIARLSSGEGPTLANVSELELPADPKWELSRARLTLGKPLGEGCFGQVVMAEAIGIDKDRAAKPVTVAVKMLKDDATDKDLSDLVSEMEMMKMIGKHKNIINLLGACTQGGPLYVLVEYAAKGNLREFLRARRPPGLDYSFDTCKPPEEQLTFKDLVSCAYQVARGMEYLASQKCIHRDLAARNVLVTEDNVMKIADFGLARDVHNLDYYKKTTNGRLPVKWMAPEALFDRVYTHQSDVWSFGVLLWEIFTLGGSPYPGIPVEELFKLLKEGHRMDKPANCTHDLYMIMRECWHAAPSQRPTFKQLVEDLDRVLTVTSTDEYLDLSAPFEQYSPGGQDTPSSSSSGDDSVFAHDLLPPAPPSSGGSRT

[8] = cell line not stated (Caco-2 and T84 cells studied), PD98059 20 μM, SB203580 1 μM, LY294002 50 μM, antibodies 1:100
[9] = Caco-2 cells, agent given before or with 100 ng/ml FGFs (TM 200 μM, sodium chlorate 50 mM, LY294002 50 μM, PMA 100 ng/ml, antibodies 1:100)

COc1cccc(-c2cc(=O)c3ccccc3o2)c1N [PD98059, reference compound]
effect of added agent on FGF-induced reduction in TER (Caco-2 cells [1]; [8]): failed to eliminate the ligand mediated inhibition of TER

CCCCCCCCCCCCCC(=O)O[C@@H]1[C@@H](C)[C@@]2(O)[C@@H](C=C(CO)C[C@]3(O)C(=O)C(C)=C[C@@H]23)[C@@H]2C(C)(C)[C@]12OC(C)=O [PMA, phorbol 12-myristate 13-acetate, reference compound]
effect of added agent on FGF-induced reduction in TER (Caco-2 cells [1]; [9]): prevented FGF2 and FGF7 activity, but not that of FGF1

C[S+]([O-])c1ccc(-c2nc(-c3ccncc3)c(-c3ccc(F)cc3)[nH]2)cc1 (stereo not shown) [SB203580, reference compound]
effect of added agent on FGF-induced reduction in TER (Caco-2 cells [1]; [8]): failed to eliminate the ligand mediated inhibition of TER

[Na+].[O-][Cl+2]([O-])[O-] [Sodium chlorate, sodium chlorate, reference compound]
effect of added agent on FGF-induced reduction in TER (T84 cells [2]): eliminated the ability
effect of added agent on FGF-induced reduction in TER (Caco-2 cells [1]; [9]): eliminated the ability; also recorded: abrogated the ability

[NH4+].[NH4+].[SH-].[SH-].[S]=[Mo]=[S] [TM, Ammonium tetrathiomolybdate, reference compound]
effect of added agent on proliferative effect of FGF2 and FGF7 (T84 cells [3]): eliminated the proliferative effect of FGF2 and FGF7
effect of added agent on FGF-induced reduction in TER (T84 cells [2]): prevented
distribution of FGF1 (FGF1 [4]): retaining FGF1 closer to the nucleus
effect of added agent on proliferative effect of FGF2 and FGF7 (Caco-2 cells [5]): eliminated the proliferative effect of FGF2 and FGF7
distribution of FGF1 (FGF1 [6]): retaining FGF1 closer to the nucleus
effect of added agent on FGF-induced reduction in TER (Caco-2 cells [1]; [9]): abrogated the reduction in TER induced by FGF2

Boiled FGF1: FGF1 that was boiled, used as control in the TER test
reduction of TER (in words) (Caco-2 cells [1]; cell line not stated (Caco-2 and T84 cells studied)): did not reduce TER

Recombinant human FGF1 (from UniProt P05230 16-155) (ligand)
inhibition of increases in TER over three days, Caco-2 cells [7]: 35.1%
inhibition of increases in TER over three days, T84 cells [7]: 30.1%
reduction of TER at 48 hours, Caco-2 cells [7]: 45.1%
reduction of TER at 48 hours, T84 cells [7]: 22.7%
